Laboratory results from paper PMC3979416 (The Journal of Biological Chemistry, 2014).
Read-outs that look alike come from different tables or passages of the source.

Legend:
BRD4 BD1 Y139F [1] = biological target: T1, BRD4 BD1 Y139F (Homo sapiens, UniProt O60885, Y139F); details: TSA
Method: (§1) In a typical TSA, 0.4 μg of BRD4 BD1 protein were mixed with 5× Sypro Orange (Molecular Probe) and adjusted to a final volume of 5 μl with 100 mM HEPES buffer, pH 7.5 (Applichem), and 150 mM NaCl (Sigma). […] To protect samples from evaporation, they were overlaid with 1 μl of silicone oil DC200 (Sigma). Melting curves were recorded using a ThermoFluor system (Johnson and Johnson Pharmaceutical Research and Development) after heating the samples from 25 up to 95 °C while measuring the fluorescence intensity of the dye with the excitation and emission filters set to 465 and 590 nm, respectively. For data analysis, melting curves (fluorescence intensity changes at increasing temperatures) were fitted using a first derivative method ([51]) to determine the melting point Tm and the unfolding enthalpy ΔHu using the evaluation software provided by the manufacturer of the instrument. […] The heat capacity of protein unfolding (ΔCpu) was assumed to be independent of the temperature and estimated from the size of the protein using the equation ([52]), ΔCpu = −119 + 0.20(−907 + 93(#residues)). […] ([53]).
(§2) Standard free energy of binding (ΔG°) and entropy (ΔS°) were calculated with the equations ΔG° = −RTln(1/KD°) and −TΔS° = ΔG° × ΔH°b. To facilitate comparisons dΔG° was also calculated: dΔG° = ΔG° (mt) − ΔG° (WT).

BRD4 BD1 L94A [2] = biological target: T2, BRD4 BD1 L94A (Homo sapiens, UniProt O60885, L94A)
BRD4 BD1 wild type [3] = details: WT, TR-FRET competition, 50 nM protein, 200 nM biotinylated H4 peptide; IC50 expressed as KD; mean ± S.D.
Method: as §2
(§3) The experiments were performed in 384-well black small volume microtiter plates (Greiner) in a buffer composed of 50 mM Hepes, pH 7.5 (Applichem), 50 mM NaCl (Sigma), 400 mM KF (Sigma), 0.5 mM CHAPS (Sigma), and 0.05% BSA (Sigma) in a final volume of 5–10 μl (n = 4). BRD4 (100 nM) protein domains were mixed with 200 nM concentrations of the biotin-labeled histone peptides and incubated for 30 min at room temperature. The protein-peptide complexes at equilibrium were then detected with 5 nM Eu^3+ cryptate-conjugated streptavidin (CisBio) and 10 nM anti-His6-XL665 (Cisbio). To analyze the binding of mutated histone peptides at different ionic strengths, streptavidin Eu^3+ chelate (W1024, PerkinElmer Life Sciences) was used instead of cryptate as fluorescence donor, and KF was replaced by NaCl at concentrations of 20, 100, and 500 mM. After 3 h of further incubation at 4 °C, the plates were measured in a PheraStar reader (BMG Labtech) using the homogeneous time-resolved fluorescence module (excitation, 337 nm with 10 flashes; emission, 620 and 665 nm). […]

BRD4 BD1 mutants [4] = system: BRD4 BD1 mutants
Method: After 30 min of incubation at room temperature, the plates were measured in a Tecan M1000 plate reader using its FP module and excitation/emission wavelengths of 530 and 570 nm, respectively. For KD determinations the background-corrected polarization values were plotted against the concentrations of BRD4, and the data were fitted to a one-site binding equation: Y = Bmax × X/(KD + X), where Y is the specific binding, and Bmax is the maximal binding, using the GraphPad Prism software. Free energy of binding ΔG was calculated as described above.

[5] = system: Patient-derived NMC tumors; details: xenograft, ref [17], [26]; cited from earlier work
BRD4 BD1 M149A [6] = biological target: T3, BRD4 BD1 M149A (Homo sapiens, UniProt O60885, M149A)
BRD4 BD1 Y97F [7] = details: read-out: EC50 (protein stabilization)
Method: (§4) For the cellular stabilization assays, the codon-optimized sequence of the wild-type and mutant versions of BRD4 BD1 (amino acids 44–166) flanked by an N-terminal His6 tag and a C-terminal FLAG tag and by 5′ and 3′ site-specific attachment sites for recombination using the Gateway technology (Invitrogen) were prepared by total DNA synthesis (GeneArt). The synthesized DNA fragments were cloned into the pTT5 ([49]) destination vector using a lambda site-specific recombination system (LR-recombination, Gateway Technology, Invitrogen). Plasmid DNA was prepared using the QIAprep Spin Miniprep kit (Qiagen).
(§5) HEK293–6E cells (Yves Durocher, National Research Council Canada) were grown in suspension with gentle shaking in FreeStyle F17 medium (Invitrogen) containing 4 mM L-alanyl-L-glutamine (BioChrom AG) and 0.1% Pluronic (Invitrogen). For transfection with DNA, 10 ml of cell suspension at a density of 10^6 cells/ml were prepared. […]
(§6) Plates were incubated at room temperature in the dark for 2 h. Time-resolved fluorescence was measured with a PHERAstar FS microplate reader (BMG Labtech) using the homogeneous time-resolved fluorescence module (excitation 337 nm, emission 1: 620 nm; emission 2: 665 nm). […]

BRD4 BD1 mutants [8] = assay: Thermal shift assay with JQ1, mutants as a group; assay type: binding, human; details: 100 μM JQ1
Method: In a typical TSA, 0.4 μg of BRD4 BD1 protein were mixed with 5× Sypro Orange (Molecular Probe) and adjusted to a final volume of 5 μl with 100 mM HEPES buffer, pH 7.5 (Applichem), and 150 mM NaCl (Sigma). […] To protect samples from evaporation, they were overlaid with 1 μl of silicone oil DC200 (Sigma). […] For data analysis, melting curves (fluorescence intensity changes at increasing temperatures) were fitted using a first derivative method ([51]) to determine the melting point Tm and the unfolding enthalpy ΔHu using the evaluation software provided by the manufacturer of the instrument. A series of thermal melting curves was collected in the presence of varying inhibitor concentrations.
as §2

BRD4 BD1 N140A [9] = details: read-out: EC50 (protein stabilization)
Method: as §4, §5, §6

BRD4 BD1 W81A [10] = biological target: T4, BRD4 BD1 W81A (Homo sapiens, UniProt O60885, W81A)
BRD4 BD1 mutants [11] = system: BRD4 BD1 mutants; remark: listed apart in the source
Method: The TR-FRET binding assay used to measure the interaction of BRD4 with acetylated peptides was a modified version of a previously described protocol ([18]). The experiments were performed in 384-well black small volume microtiter plates (Greiner) in a buffer composed of 50 mM Hepes, pH 7.5 (Applichem), 50 mM NaCl (Sigma), 400 mM KF (Sigma), 0.5 mM CHAPS (Sigma), and 0.05% BSA (Sigma) in a final volume of 5–10 μl (n = 4). BRD4 (100 nM) protein domains were mixed with 200 nM concentrations of the biotin-labeled histone peptides and incubated for 30 min at room temperature. The protein-peptide complexes at equilibrium were then detected with 5 nM Eu^3+ cryptate-conjugated streptavidin (CisBio) and 10 nM anti-His6-XL665 (Cisbio). To analyze the binding of mutated histone peptides at different ionic strengths, streptavidin Eu^3+ chelate (W1024, PerkinElmer Life Sciences) was used instead of cryptate as fluorescence donor, and KF was replaced by NaCl at concentrations of 20, 100, and 500 mM.
The plates were then processed as described above. IC50 values were calculated by plotting the log [competitor/inhibitor] versus mean normalized response data from at least two independent experiments measured in triplicate and fitting it to a four-parameter equation with variable Hill slope, Y = bottom + (top-bottom)/(1 + 10^(logIC50 − ^X^) × Hill slope)), using the GraphPad Prism software. […]

BRD4 BD1 Y97F [12] = details: TSA, 100 μM JQ1, pH 7.5, mean ± S.D.
Method: as §1, §2

BRD4 BD1 I146A [13] = biological target: T5, BRD4 BD1 I146A (Homo sapiens, UniProt O60885, I146A); details: TR-FRET competition
Method: as §2, §3

BRD4 BD1 P82A [14] = biological target: T6, BRD4 BD1 P82A (Homo sapiens, UniProt O60885, P82A); details: TR-FRET competition
Method: as §2, §3

BRD4 BD1 D145A [15] = biological target: T7, BRD4 BD1 D145A (Homo sapiens, UniProt O60885, D145A)
BRD4 BD1 Y139F [16] = biological target: T1, BRD4 BD1 Y139F
BRD4 BD1 L94A [17] = biological target: T2, BRD4 BD1 L94A; details: TSA
Method: as §1, §2

BRD4 BD1 W81A [18] = biological target: T4, BRD4 BD1 W81A; details: TSA
Method: as §1, §2

BRD4 BD1 D144A [19] = biological target: T8, BRD4 BD1 D144A (Homo sapiens, UniProt O60885, D144A); details: TR-FRET competition
Method: as §2, §3

BRD4 BD1 D145A [20] = biological target: T7, BRD4 BD1 D145A; details: TR-FRET competition
Method: as §2, §3

BRD4 BD1 wild type [21] = system: BRD4 BD1 wild type
Method: as §4, §5, §6

BRD4 BD1 Y139F [22] = biological target: T1, BRD4 BD1 Y139F; details: TR-FRET competition
Method: as §2, §3

BRD4 BD1 D145A [23] = biological target: T7, BRD4 BD1 D145A; details: TSA
Method: as §1, §2

BRD4 BD1 D144A [24] = biological target: T8, BRD4 BD1 D144A; details: TSA
Method: as §1, §2

BRD4 BD1 wild type [25] = details: pH 7.5
BRD4 BD1 D144A [26] = biological target: T8, BRD4 BD1 D144A
BRD4 wild type = assay: FRAP of GFP-BRD4 wild type with JQ1; assay type: cell-based, human; details: U2OS cells, 1 μM JQ1 1 h before imaging
Method: For the photobleaching experiments we used full-length human BRD4 cDNA (RefSeq NM_058243.2) cloned into the pcDNA6.2/N-EmGFP-DEST plasmid (Invitrogen) by the Gateway technology (Invitrogen) to create a chimeric green fluorescent protein (GFP)/wild-type BRD4 expression construct. […] The synthesized DNA fragments were cloned into the pTT5 ([49]) destination vector using a lambda site-specific recombination system (LR-recombination, Gateway Technology, Invitrogen). Plasmid DNA was prepared using the QIAprep Spin Miniprep kit (Qiagen).
FRAP studies were performed using a protocol modified from previous work ([17], [55]). In brief, U2OS cells were reverse-transfected (Lipofectamine 2000, Invitrogen) with mammalian expression constructs encoding chimeric GFP-BRD4 (wild type or mutants). […] The average intensity at each imaging time point was measured for three regions of interest: the bleached region (It), the total cell nucleus (Tt), and a random region outside of the cell for background subtraction (BG). […] The base line was normalized to zero, and the prebleach was normalized to 1. Normalized data were imported into GraphPad Prism 6.0, and half-times of recovery (t½) were calculated from individual single exponential curve fits for each cell and presented as the mean for each group. p values were calculated using an unpaired t test.

BRD4 BD1 wild type [27] = details: WT, TSA
Method: as §1, §2

BRD4 BD1 L94A [28] = biological target: T2, BRD4 BD1 L94A; details: TR-FRET competition
Method: as §2, §3

BRD4 BD1 P82A [29] = biological target: T6, BRD4 BD1 P82A; details: TSA
Method: as §1, §2

BRD4 BD1 M149A [30] = biological target: T3, BRD4 BD1 M149A; details: TSA
Method: as §1, §2

BRD4 BD1 N140A [31] = details: TSA, 100 μM JQ1, pH 7.5, mean ± S.D.
Method: as §1, §2

BRD4 BD1 mutants [32] = assay type: cell-based, human
Method: as §4, §5, §6

BRD4 BD1 I146A [33] = biological target: T5, BRD4 BD1 I146A
BRD4 BD1 I146A [34] = biological target: T5, BRD4 BD1 I146A; details: TSA
Method: as §1, §2

BRD4 BD1 P82A [35] = biological target: T6, BRD4 BD1 P82A
BRD4 = assay: TR-FRET displacement of the H4 peptide by the JQ1-TAMRA probe; assay type: binding, human; details: data not shown
[36] = 100 μM JQ1, pH 7.5, mean ± S.D.

SMILES: Cc1sc2c(c1C)C(c1ccc(Cl)cc1)=N[C@@H](CC(=O)OC(C)(C)C)c1nnc(C)n1-2 [JQ1, tert-butyl[(6S)-4-(4-chlorophenyl)-2,3,9-trimethyl-6H-thieno[3,2-f][1,2,4]triazolo[4,3-a][1,4]diazepin-6-yl]acetate]
- ΔG° (BRD4 BD1 Y139F [1]): -12.3 kcal/mol
- −TΔS° (BRD4 BD1 Y139F [1]): -7.84 kcal/mol
- ΔTm (BRD4 BD1 Y139F [1]; [36]): 9.8 ± 0.3 °C
- ΔH°b (BRD4 BD1 Y139F [1]; 100 μM JQ1 vs DMSO): -4.47 kcal/mol
- ΔG (BRD4 BD1 L94A [2]): -9.66 kcal/mol
- Kd (BRD4 BD1 wild type [3]): 106 ± 13.9 nM
- effect of mutation on JQ1 binding (in words) (BRD4 BD1 mutants [4]): strongest effects
- tumor inhibition (in words) [5]: inhibited
- ΔG (BRD4 BD1 M149A [6]): -8.96 kcal/mol
- EC50 (BRD4 BD1 Y97F [7]): > 10000 nM
- stabilization by JQ1 (in words) (BRD4 BD1 mutants [8]; P82A, L94A, and I146A): moderate stabilization profile
- stabilization by JQ1 (in words) (BRD4 BD1 mutants [8]; W81A, Y97F, N140A, and M149A): least stabilized by JQ1
- stabilization by JQ1 (in words) (BRD4 BD1 mutants [8]; Y139F, D144A, and D145A): as strongly as wild-type BD1
- EC50 (BRD4 BD1 N140A [9]): 8400 nM
- ΔG (BRD4 BD1 W81A [10]): -8.29 kcal/mol
- inhibition of BRD4-H4 interaction vs wild type (in words) (BRD4 BD1 mutants [11]; Leu-94 and Asp-145 mutated to alanine): better inhibitor
- inhibition of BRD4-H4 interaction vs wild type (in words) (BRD4 BD1 mutants [11]; P82A): slightly decreased
- ΔTm (BRD4 BD1 Y97F [12]): 3.1 ± 0.6 °C
- ΔG (BRD4 BD1 I146A [13]): -9.39 kcal/mol
- ΔG (BRD4 BD1 P82A [14]): -9.13 kcal/mol
- JQ1 binding compared with wild type (in words) (BRD4 BD1 D145A [15]): not significantly different compared with wild-type BRD4 BD1
- ΔG (BRD4 BD1 D145A [15]): -10.6 kcal/mol
- JQ1 binding compared with wild type (in words) (BRD4 BD1 Y139F [16]): not significantly different compared with wild-type BRD4 BD1
- ΔG (BRD4 BD1 Y139F [16]): -10.8 kcal/mol
- ΔG° (BRD4 BD1 L94A [17]): -11.8 kcal/mol
- −TΔS° (BRD4 BD1 L94A [17]): -7.6 kcal/mol
- ΔTm (BRD4 BD1 L94A [17]; [36]): 6.9 ± 0.4 °C
- ΔH°b (BRD4 BD1 L94A [17]; 100 μM JQ1 vs DMSO): -4.23 kcal/mol
- ΔG° (BRD4 BD1 W81A [18]): -10.7 kcal/mol
- −TΔS° (BRD4 BD1 W81A [18]): -8.53 kcal/mol
- ΔTm (BRD4 BD1 W81A [18]; [36]): 2.8 ± 0.4 °C
- ΔH°b (BRD4 BD1 W81A [18]; 100 μM JQ1 vs DMSO): -2.2 kcal/mol
- ΔG (BRD4 BD1 D144A [19]): -9.94 kcal/mol
- increase of inhibitory activity vs wild type (BRD4 BD1 D145A [20]): 6 fold
- ΔG (BRD4 BD1 D145A [20]): -10.5 kcal/mol
- protein levels (in words) (BRD4 BD1 wild type [21]): dose-dependent and saturable increase of the TR-FRET signals
- EC50 (BRD4 BD1 wild type [21]; read-out: EC50 (protein stabilization)): 100 nM
- ΔG (BRD4 BD1 Y139F [22]): -9.75 kcal/mol
- ΔG° (BRD4 BD1 D145A [23]): -12.2 kcal/mol
- −TΔS° (BRD4 BD1 D145A [23]): -10.7 kcal/mol
- ΔTm (BRD4 BD1 D145A [23]; [36]): 9.2 ± 0.6 °C
- ΔH°b (BRD4 BD1 D145A [23]; 100 μM JQ1 vs DMSO): -1.55 kcal/mol
- ΔG° (BRD4 BD1 D144A [24]): -12.3 kcal/mol
- −TΔS° (BRD4 BD1 D144A [24]): -9.89 kcal/mol
- ΔTm (BRD4 BD1 D144A [24]; [36]): 9.5 ± 0.6 °C
- ΔH°b (BRD4 BD1 D144A [24]; 100 μM JQ1 vs DMSO): -2.37 kcal/mol
- Kd (BRD4 BD1 wild type [25]): 14.5 ± 3.3 nM
- ΔG (BRD4 BD1 D144A [26]): -9.89 kcal/mol
- half-fluorescence recovery (in words) (BRD4 wild type): enhanced half-fluorescence recovery
- ΔTm (BRD4 BD1 wild type [27]; 100 μM JQ1, 100 mM HEPES pH 7.5, 150 mM NaCl, mean ± S.D.): 9.6 ± 0.6 °C
- Kd (BRD4 BD1 wild type [27]; extrapolated standard KD): 1 nM
- ΔG (BRD4 BD1 L94A [28]): -9.94 kcal/mol
- ΔG° (BRD4 BD1 P82A [29]): -11.5 kcal/mol
- −TΔS° (BRD4 BD1 P82A [29]): -7.36 kcal/mol
- ΔTm (BRD4 BD1 P82A [29]; [36]): 5.1 ± 0.2 °C
- ΔH°b (BRD4 BD1 P82A [29]; 100 μM JQ1 vs DMSO): -4.16 kcal/mol
- ΔG° (BRD4 BD1 M149A [30]): -10.9 kcal/mol
- −TΔS° (BRD4 BD1 M149A [30]): -10.8 kcal/mol
- ΔTm (BRD4 BD1 M149A [30]; [36]): 3.2 ± 0.3 °C
- ΔH°b (BRD4 BD1 M149A [30]; 100 μM JQ1 vs DMSO): -0.12 kcal/mol
- ΔTm (BRD4 BD1 N140A [31]): 3.3 ± 0.4 °C
- EC50 increase vs wild type (BRD4 BD1 mutants [32]): from 7-fold to >100-fold
- ΔG (BRD4 BD1 I146A [33]): -8.7 kcal/mol
- ΔG° (BRD4 BD1 I146A [34]): -11.8 kcal/mol
- −TΔS° (BRD4 BD1 I146A [34]): -9.66 kcal/mol
- ΔTm (BRD4 BD1 I146A [34]; [36]): 6.1 ± 0.3 °C
- ΔH°b (BRD4 BD1 I146A [34]; 100 μM JQ1 vs DMSO): -2.1 kcal/mol
- ΔG (BRD4 BD1 P82A [35]): -9.06 kcal/mol

SMILES: Cc1sc2c(c1C)C(c1ccc(Cl)cc1)=N[C@@H](CC(=O)NCCCCCNC(=O)c1ccc(-c3c4ccc(=[N+](C)C)cc-4oc4cc(N(C)C)ccc34)c(C(=O)[O-])c1)c1nnc(C)n1-2 [JQ1-TAMRA, 5-{[5-({[(6S)-4-(4-chlorophenyl)-2,3,9-trimethyl-6H-thieno[3,2-f][1,2,4]triazolo [4,3-a][1,4]diazepin-6-yl]acetyl}amino)pentyl]carbamoyl}-2-[6-(dimethylamino)-3-(dimethyliminio)-3H-xanthen-9-yl]benzoate]
- KD (in words) (BRD4): comparable with that of JQ1
